Earlier results in patent US6426407B1, “Residues for binding third strands to complementary nucleic acid duplexes of any base pair sequence” (Codon Pharm., priority 1995, dated 2002).

Columns and labels:
[1] = tested on: homopolymer GC duplexes, homopolymer AT duplexes, and mixed base-pair duplexes with alternating AG in the center strand
Wherever third strand base complementary to center strand purine is given: key: a '+' means the bases are complementary or correspondent; a '−' means they are not complementary or not correspondent.

Row | SMILES | third strand base complementary to center strand purine (center strand purine A) | third strand base complementary to center strand purine (center strand purine G) | triplex formation [1]
1 | Nc1nc2nc[nH]c2c(=O)[nH]1 [G, guanine] | − | + | 
2 | Nc1cc[nH]c(=O)n1 [C, cytosine] | − | + | 
3 | OC[C@H]1O[C@@H](n2cnc3c(O)ncnc32)[C@H](O)[C@@H]1O [I, inosine] | + | + | forms triplexes
4 | Nc1ncnc2nc[nH]c12 [A, adenine] | + | − | 
